Data from patent US8969389B2, “Substituted 6-methylnicotinamides as mGluR5 positive allosteric modulators” (Vanderbilt University, priority 2010, dated 2015).
pEC50: −log10 of the molar value.

What follows are compounds tested against T1, rat mGluR5 (Rattus norvegicus, UniProt P31424) (assay: Potentiation of glutamate response in HEK cells transfected with rat mGluR5 (Ca2+ fluorescence, FDSS)). Details: (R) and (S) enantiomers, Tables 3A/3B; read-out: mGluR5 EC50.
T1 construct: expressed in transfected cells; host or cells: HEK (human embryonic kidney) cells
T1 sequence (P31424 21-1203): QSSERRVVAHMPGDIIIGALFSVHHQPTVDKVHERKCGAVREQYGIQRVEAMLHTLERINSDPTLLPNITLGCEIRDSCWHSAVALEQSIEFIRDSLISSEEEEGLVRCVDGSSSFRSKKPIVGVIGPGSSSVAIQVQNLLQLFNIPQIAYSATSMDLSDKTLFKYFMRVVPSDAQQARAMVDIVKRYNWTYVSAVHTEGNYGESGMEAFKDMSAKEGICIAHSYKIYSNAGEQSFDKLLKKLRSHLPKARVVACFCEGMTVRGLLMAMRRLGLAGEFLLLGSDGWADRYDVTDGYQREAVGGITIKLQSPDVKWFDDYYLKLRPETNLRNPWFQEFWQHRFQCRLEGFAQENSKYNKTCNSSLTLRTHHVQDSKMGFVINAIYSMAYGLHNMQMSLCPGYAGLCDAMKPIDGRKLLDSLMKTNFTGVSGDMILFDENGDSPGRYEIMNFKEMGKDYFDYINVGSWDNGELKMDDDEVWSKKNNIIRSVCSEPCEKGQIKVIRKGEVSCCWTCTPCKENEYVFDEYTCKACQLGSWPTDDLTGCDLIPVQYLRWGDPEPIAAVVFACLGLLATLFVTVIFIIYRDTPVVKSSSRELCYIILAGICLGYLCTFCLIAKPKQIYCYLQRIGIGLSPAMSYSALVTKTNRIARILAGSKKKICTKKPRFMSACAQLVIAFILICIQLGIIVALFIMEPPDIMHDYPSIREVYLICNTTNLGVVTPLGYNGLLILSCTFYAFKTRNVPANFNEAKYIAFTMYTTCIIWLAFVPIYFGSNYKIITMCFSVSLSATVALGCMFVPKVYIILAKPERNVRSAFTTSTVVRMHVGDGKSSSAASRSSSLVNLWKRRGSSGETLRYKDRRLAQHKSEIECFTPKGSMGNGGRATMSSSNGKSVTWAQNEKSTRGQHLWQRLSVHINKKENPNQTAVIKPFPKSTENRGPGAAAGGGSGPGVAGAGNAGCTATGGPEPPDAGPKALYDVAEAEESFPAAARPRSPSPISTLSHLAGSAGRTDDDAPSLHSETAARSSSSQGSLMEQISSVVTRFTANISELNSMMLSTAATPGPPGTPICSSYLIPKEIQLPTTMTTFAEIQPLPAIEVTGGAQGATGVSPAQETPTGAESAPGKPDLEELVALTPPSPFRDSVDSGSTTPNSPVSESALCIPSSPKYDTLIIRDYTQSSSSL
Format: cell-based
Experimental: Human embryonic kidney (HEK) cells transfected with rat mGluR5 were plated in clear bottom assay plates for assay in a Functional Drug Screening System (FDSS). In the alternative assay, HEK cells transfected with human mGluR5 (H10H cell line) were plated for assay in the FDSS. […] The cells were loaded with a Ca^2+-sensitive fluorescent dye (e.g., Fluo-4), and the plates were washed and placed in the FDSS instrument. After establishment of a fluorescence baseline for twelve seconds, the compounds of the present invention were added to the cells, and the response in cells was measured. Five minutes later, an mGluR5 agonist (e.g., glutamate, 3,5-dihydroxyphenylglycine, or quisqualate) was added to the cells, and the response of the cells was measured. Potentiation of the agonist response of mGluR5 by the compounds in the present invention was observed as an increase in response to non-maximal concentrations of agonist (here, glutamate) in the presence of compound compared to the response to agonist in the absence of compound.
The above described assay operated in two modes. In the first mode, a range of concentrations of the present compounds were added to cells, followed by a single fixed concentration of agonist. If a compound acted as a potentiator, an EC50 value for potentiation and a maximum extent of potentiation by the compound at this concentration of agonist was determined by non-linear curve fitting. In the second mode, several fixed concentrations of the present compounds were added to various wells on a plate, followed by a range of concentrations of agonist for each concentration of present compound; the EC50 values for the agonist at each concentration of compound were determined by non-linear curve fitting. A decrease in the EC50 value of the agonist with increasing concentrations of the present compounds (a leftward shift of the agonist concentration-response curve) is an indication of the degree of mGluR5 potentiation at a given concentration of the present compound. An increase in the EC50 value of the agonist with increasing concentrations of the present compounds (a rightward shift of the agonist concentration-response curve) is an indication of the degree of mGluR5 antagonism at a given concentration of the present compound. The second mode also indicates whether the present compounds also affect the maximum response to mGluR5 to agonists.
In the case of `C[C@H](NC(=O)c1ccc(COc2cc(F)cc(F)c2)nc1)C1CCCCC1` [Example 12b, (S)-N-(1-cyclohexylethyl)-6-((3,5-difluorophenoxy)methyl)nicotinamide], the pEC50 was under 5.00.
In the case of `C[C@@H](NC(=O)c1ccc(COc2cc(F)cc(F)c2)nc1)C1CCCCC1` [Example 12a, (R)-N-(1-cyclohexylethyl)-6-((3,5-difluorophenoxy)methyl)nicotinamide], the pEC50 was 6.51.
`C[C@H](NC(=O)c1ccc(COc2cccc(F)c2)nc1)C(C)(C)C` [Example 13b, (S)-N-(3,3-dimethylbutan-2-yl)-6-((3-fluorophenoxy)methyl)nicotinamide] showed a pEC50 of under 5.00.
Work on `C[C@H](NC(=O)c1ccc(COc2cccc(F)c2)nc1)C1CCCCC1` [Example 11b, (S)-N-(1-cyclohexylethyl)-6-((3-fluorophenoxy)methyl)nicotinamide] yielded a pEC50 of under 5.00.
Compound `C[C@@H](NC(=O)c1ccc(COc2cccc(F)c2)nc1)C(C)(C)C` [Example 13a, (R)-N-(3,3-dimethylbutan-2-yl)-6-((3-fluorophenoxy)methyl)nicotinamide] has a pEC50 of 7.09.

Same assay, conditions: HEK cells transfected with rat mGluR5; read-out: rmGlu5 PAM EC50
`C[C@@H](NC(=O)c1ccc(COc2cccc(C#N)c2)nc1)C1CCCCC1` gave a pEC50 of 6.66.
With `O=C(NC1CCC1)c1ccc(COc2cccc(F)c2)nc1` the pEC50 was 5.46.
`CC(C)CCNC(=O)c1ccc(COc2ccccc2)nc1` gave a pEC50 of 6.02.
Compound `CC(C)(C)CCNC(=O)c1ccc(COc2cc(F)cc(F)c2)nc1` has a pEC50 of 5.80.
Compound `O=C(Nc1ccc(Cl)cn1)c1ccc(COc2ccccc2)nc1` has a pEC50 of under 5.00.
In the case of `O=C(Nc1nncs1)c1ccc(COc2ccccc2)nc1`, the pEC50 was under 5.00.
In the case of `C[C@@H](NC(=O)c1ccc(COc2ccccc2C#N)nc1)C1CCCCC1`, the pEC50 was under 5.00.
`C[C@H](NC(=O)c1ccc(COc2ccccc2)nc1)C1CCCCC1` gave a pEC50 of 5.54.
In the case of `O=C(NC1CCCCC1)c1ccc(COc2cc(F)cc(F)c2)nc1`, the pEC50 was under 5.00.
In the case of `O=C(NC(C1CC1)C(F)(F)F)c1ccc(COc2cccc(F)c2)nc1` (stereo not drawn), the pEC50 was 5.72.
For `C[C@@H](NC(=O)c1ccc(COc2cccnc2)nc1)C1CCCCC1` [drawing 107], the pEC50 was 5.35.
`C[C@@H](NC(=O)c1ccc(COc2ccccc2)nc1)C1CCCCC1` [drawing 69] showed a pEC50 of 6.84.
`C[C@@H](NC(=O)c1ccc(COc2cccc(F)c2)nc1)C(C)(C)C` [drawing 65] showed a pEC50 of 7.09.
Work on `O=C(NC1CC2CCC1C2)c1ccc(COc2ccccc2)nc1` (stereo not drawn) [drawing 70] yielded a pEC50 of 6.82.
For `O=C(NCCN1CCCCC1)c1ccc(COc2ccccc2)nc1`, the pEC50 was under 5.00.
Compound `CC(C)NC(=O)c1ccc(COc2ccccc2)nc1` has a pEC50 of under 5.00.
`C[C@@H](NC(=O)c1ccc(COc2ccccn2)nc1)C1CCCCC1` showed a pEC50 of under 5.00.
`CC[C@@H](C)NC(=O)c1ccc(COc2cccc(F)c2)nc1` showed a pEC50 of 5.48.
In the case of `O=C(NC1CCc2ccccc21)c1ccc(COc2ccccc2)nc1` (stereo not drawn) [drawing 113], the pEC50 was under 5.00.
Compound `C[C@@H](NC(=O)c1ccc(COc2ccc(F)cc2)nc1)C1CCCCC1` has a pEC50 of 6.44.
With `N#Cc1cc(F)cc(OCc2ccc(C(=O)NC3(c4ccccc4)CCC3)cn2)c1` the pEC50 was under 5.00.
For `O=C(NC1CCCCC1)c1ccc(COc2cccc(F)c2)nc1`, the pEC50 was 6.35.
Work on `O=C(N[C@H](C1CC1)C(F)(F)F)c1ccc(COc2cccc(F)c2)nc1` yielded a pEC50 of under 5.00.
Compound `C[C@@H](NC(=O)c1ccc(COc2ccncc2)nc1)C1CCCCC1` has a pEC50 of 5.59.
`O=C(Nc1ncccc1F)c1ccc(COc2ccccc2)nc1` showed a pEC50 of under 5.00.
`C[C@@H](NC(=O)c1ccc(COc2cccc(Cl)c2)nc1)C1CCCCC1` was tested, and the pEC50 was 6.68.
Work on `O=C(NC1CCc2ccccc21)c1ccc(COc2ccccc2)nc1` (stereo not drawn) [drawing 138] yielded a pEC50 of under 5.00.
For `O=C(NCCc1ccc(Cl)cc1)c1ccc(COc2ccccc2)nc1`, the pEC50 was under 5.00.
With `O=C(NCC1CC1)c1ccc(COc2ccccc2)nc1` the pEC50 was under 5.00.
For `CC(C)(C)CCNC(=O)c1ccc(COc2cccc(F)c2)nc1`, the pEC50 was 6.52.
`O=C(NCc1ccccn1)c1ccc(COc2ccccc2)nc1` gave a pEC50 of under 5.00.
Work on `O=C(Nc1nccs1)c1ccc(COc2cccc(F)c2)nc1` yielded a pEC50 of under 5.00.
With `C[C@@H](NC(=O)c1ccc(COc2cccc(F)c2)nc1)C1CCCCC1` [drawing 67] the pEC50 was 6.89.
In the case of `C[C@@H](NC(=O)c1ccc(COc2cccc(F)c2)nc1)C1CCCCC1` [drawing 74], the pEC50 was 6.76.
`CC(C)(C)CCNC(=O)c1ccc(COc2cc(F)cc(C#N)c2)nc1` gave a pEC50 of under 5.00.
Compound `C[C@@H](NC(=O)c1ccc(COc2cccc(F)c2)nc1)C1CCC1` has a pEC50 of 6.86.
For `CC(C)NC(=O)c1ccc(COc2cc(F)cc(C#N)c2)nc1`, the pEC50 was under 5.00.
Work on `CC(C)NC(=O)c1ccc(COc2cccc(F)c2)nc1` yielded a pEC50 of under 5.00.
`C[C@@H](NC(=O)c1ccc(COc2ccccc2F)nc1)C1CCCCC1` gave a pEC50 of 6.80.
In the case of `O=C(NC1CC2CCC1C2)c1ccc(COc2ccccc2)nc1` (stereo not drawn) [drawing 66], the pEC50 was 6.92.
`COCC(C)NC(=O)c1ccc(COc2cccc(F)c2)nc1` (stereo not drawn) showed a pEC50 of under 5.00.
`O=C(Nc1ccccc1F)c1ccc(COc2ccccc2)nc1` was tested, and the pEC50 was 6.30.
`C[C@H](NC(=O)c1ccc(COc2cccc(F)c2)nc1)C1CCCCC1` [drawing 152] was tested, and the pEC50 was under 5.00.
`O=C(Nc1ccc(F)cc1F)c1ccc(COc2ccccc2)nc1` was tested, and the pEC50 was 6.30.
For `C[C@@H](NC(=O)c1ccc(COc2cccc(F)c2)nc1)C1CCCCC1` [drawing 73], the pEC50 was 6.77.
`C[C@@H](NC(=O)c1ccc(COc2cccc(F)c2)nc1)C1CC1` gave a pEC50 of 5.97.
`C[C@H](NC(=O)c1ccc(COc2cc(F)cc(C#N)c2)nc1)C1CCCCC1` showed a pEC50 of under 5.00.
`O=C(NCCc1ccccn1)c1ccc(COc2ccccc2)nc1` was tested, and the pEC50 was under 5.00.
`CC(NC(=O)c1ccc(COc2ccccc2)nc1)C1CCCCC1` (stereo not drawn) gave a pEC50 of 6.73.
In the case of `O=C(Nc1ccncc1)c1ccc(COc2ccccc2)nc1`, the pEC50 was under 5.00.
`O=C(NC12CC3CC(CC(C3)C1)C2)c1ccc(COc2ccccc2)nc1` gave a pEC50 of 6.22.
In the case of `C[C@@H](NC(=O)c1ccc(COc2ccccc2Cl)nc1)C1CCCCC1`, the pEC50 was under 5.00.
`O=C(Nc1ccc(F)cc1)c1ccc(COc2ccccc2)nc1` showed a pEC50 of under 5.00.
Compound `O=C(NCC1CCCCC1)c1ccc(COc2ccccc2)nc1` has a pEC50 of 6.24.
For `C[C@H](NC(=O)c1ccc(COc2cc(F)cc(F)c2)nc1)C1CCCCC1` [drawing 149], the pEC50 was under 5.00.
`O=C(NC1CCC1)c1ccc(COc2ccccc2)nc1` was tested, and the pEC50 was 5.33.
`O=C(Nc1nccs1)c1ccc(COc2ccccc2)nc1` gave a pEC50 of 5.92.
`O=C(NCCN1CCOCC1)c1ccc(COc2ccccc2)nc1` was tested, and the pEC50 was under 5.00.
For `N#Cc1cc(F)cc(OCc2ccc(C(=O)NC3CCC3)cn2)c1`, the pEC50 was under 5.00.
With `COCCNC(=O)c1ccc(COc2ccccc2)nc1` the pEC50 was under 5.00.
`O=C(NCCCN1CCOCC1)c1ccc(COc2ccccc2)nc1` was tested, and the pEC50 was under 5.00.
`O=C(NC1(c2ccccc2)CCC1)c1ccc(COc2cccc(F)c2)nc1` was tested, and the pEC50 was 6.04.
In the case of `C[C@@H](NC(=O)c1ccc(COc2ccccc2)nc1)C1CCCCC1` [drawing 78], the pEC50 was 6.59.
Compound `C[C@@H](NC(=O)c1ccc(COc2cc(F)cc(C#N)c2)nc1)C1CCCCC1` has a pEC50 of under 5.00.
`C[C@@H](NC(=O)c1ccc(COc2ccc(C#N)cc2)nc1)C1CCCCC1` gave a pEC50 of 5.60.
Compound `O=C(NC1CC2CCC1C2)c1ccc(COc2cccc(F)c2)nc1` (stereo not drawn) has a pEC50 of 7.12.
With `O=C(NC1(c2ccccc2)CCC1)c1ccc(COc2ccccc2)nc1` the pEC50 was under 5.00.
`CC(C)NC(=O)c1ccc(COc2cc(F)cc(F)c2)nc1` showed a pEC50 of under 5.00.
`O=C(Nc1cccc(F)c1)c1ccc(COc2ccccc2)nc1` was tested, and the pEC50 was under 5.00.
Compound `C[C@@H](NC(=O)c1ccc(COc2cccnc2)nc1)C1CCCCC1` [drawing 109] has a pEC50 of 5.31.
In the case of `C[C@@H](NC(=O)c1ccc(COc2cccc(F)c2)nc1)C1CCOCC1`, the pEC50 was 5.49.
`O=C(NC1(c2ccccc2)CCC1)c1ccc(COc2cc(F)cc(F)c2)nc1` was tested, and the pEC50 was under 5.00.
Work on `C[C@@H](NC(=O)c1ccc(COc2cc(F)cc(F)c2)nc1)C1CCCCC1` [drawing 81] yielded a pEC50 of 6.51.
Work on `O=C(Nc1nccs1)c1ccc(COc2cc(F)cc(F)c2)nc1` yielded a pEC50 of under 5.00.
In the case of `COCCCNC(=O)c1ccc(COc2ccccc2)nc1`, the pEC50 was under 5.00.
Work on `O=C(Nc1ccc(Cl)cc1)c1ccc(COc2ccccc2)nc1` yielded a pEC50 of under 5.00.
`O=C(Nc1cccc(F)c1F)c1ccc(COc2ccccc2)nc1` was tested, and the pEC50 was under 5.00.
`O=C(Nc1ccc(F)cn1)c1ccc(COc2ccccc2)nc1` showed a pEC50 of 5.82.
In the case of `O=C(NC1CCC1)c1ccc(COc2cc(F)cc(F)c2)nc1`, the pEC50 was 5.47.
`O=C(NC(C1CC1)C1CC1)c1ccc(COc2cccc(F)c2)nc1` showed a pEC50 of 5.90.
`CC(C)[C@@H](C)NC(=O)c1ccc(COc2cccc(F)c2)nc1` was tested, and the pEC50 was 6.80.
In the case of `O=C(Nc1cc(F)cc(F)c1)c1ccc(COc2ccccc2)nc1`, the pEC50 was under 5.00.
`O=C(Nc1cccc(C(F)(F)F)c1)c1ccc(COc2ccccc2)nc1` showed a pEC50 of under 5.00.
In the case of `O=C(Nc1ccccn1)c1ccc(COc2ccccc2)nc1`, the pEC50 was 5.28.

Same assay, conditions: S configuration enantiomer; read-out: mGluR5 potentiator EC50
`C[C@H](NC(=O)c1ccc(COc2cccc(F)c2)nc1)C1CCCCC1` [Example 11b, (S)-N-(1-cyclohexylethyl)-6-((3-fluorophenoxy)methyl)nicotinamide] gave a pEC50 of under 5.00.
